Results as given in publication PMC8697972, “New Auranofin Analogs with Antibacterial Properties against Burkholderia Clinical Isolates” (Antibiotics, 2021).

How the values were obtained:
B. ubonensis LMG 20358 = type: cell-based, Burkholderia ubonensis; conditions: B. ubonensis LMG 20358
[1] = tested on: B. contaminans FFH-2050MA; type: cell-based, Burkholderia contaminans; conditions: B. contaminans FFH-2050MA
B. dolosa CEP021 = type: cell-based, Burkholderia dolosa; conditions: B. dolosa CEP021
B. multivorans ATCC17616 = type: cell-based, Burkholderia multivorans; conditions: B. multivorans ATCC17616
B. contaminans MF16 = type: cell-based, Burkholderia contaminans; conditions: B. contaminans MF16
B. lata BCC6 = type: cell-based, Burkholderia lata; conditions: B. lata BCC6
B. contaminans FFH-4004 = type: cell-based, Burkholderia contaminans; conditions: B. contaminans FFH-4004
B. cenocepacia K56-2 = type: cell-based, Burkholderia cenocepacia; conditions: B. cenocepacia K56-2; CAMHB, 18 h, 37 °C
B. cenocepacia 140485 = type: cell-based, Burkholderia cenocepacia; conditions: B. cenocepacia 140485
[2] = tested on: B. cenocepacia K56-2 persister cells; experiment: Time kill of persister cells generated with ciprofloxacin; type: cell-based, Burkholderia cenocepacia; conditions: in PBS, 3 h; MS-40S/MS-40 2× and 4× MIC, ciprofloxacin 5× MIC

SMILES | MIC (B. ubonensis LMG 20358) [µg/mL] | MIC [1] [µg/mL] | MIC (B. dolosa CEP021) [µg/mL] | MIC (B. multivorans ATCC17616) [µg/mL] | MIC (B. contaminans MF16) [µg/mL] | MIC (B. lata BCC6) [µg/mL] | MIC (B. contaminans FFH-4004) [µg/mL] | MIC (B. cenocepacia K56-2) [µg/mL] | MIC (B. cenocepacia 140485) [µg/mL] | killing of ciprofloxacin-generated persister cells [2]
CC[P+](CC)(CC)[Au-][S][C@@H]1O[C@H](CO)[C@@H](O)[C@H](O)[C@H]1O [WB-18-FI3683] | > 128 | 128 | > 128 | 128 | 128 | 128 | > 128 | > 128 | 64 | 
CC(=O)N[C@@H]1[C@@H](O)[C@H](O)[C@@H](CO)O[C@H]1[S][Au-][P+](C)(C)C [WB-19-HB2664] | 128 | 64 | > 128 | 128 | 128 | 128 | 128 | > 128 | 128 | 
CC(=O)OC[C@H]1O[C@@H]([S][Au-][P+](C)(C)C)[C@H](OC(C)=O)[C@@H](OC(C)=O)[C@@H]1OC(C)=O [WB-19-HG5899] | 128 | 64 | > 128 | 128 | 128 | 128 | 128 | > 128 | 128 | 
CP(C)C.CP(C)C.F[P-](F)(F)(F)(F)F.[Au+] [WB-19-HL4121a] | 128 | 32 | 128 | 64 | 32 | 32 | 64 | 128 | 32 | 
C[P+](C)(C)[Au-][S]CCCO [WB-19-HL4172] | 32 | 16 | 32 | 32 | 32 | 16 | 32 | 32 | 32 | 
C[P+](C)(C)[Au-][S]CCN [WB-19-HL4181] | 32 | 32 | 64 | 32 | 64 | 16 | 32 | 32 | 32 | 
O=C(O)c1cn(C2CC2)c2cc(N3CCNCC3)c(F)cc2c1=O [ciprofloxacin, reference compound] |  |  |  |  |  |  |  |  |  | not killed
